Measured values as given in patent publication US11129861B2, “Methods for treating inflammatory diseases” (OKCHUNDANG CO., LTD., priority 2017, dated 2021).

Experiments:
[1] = Body weight measurements, expectorant assay; type: in vivo, mice; conditions: 250 mg/kg orally
Procedure: One-hundred twenty one 6-week male SPF/VAF CrljOri: CD1[ICR] mice (OrientBio, Seungnam, Korea; body weight ranged in 29-32 g upon receipt) were prepared, and seven groups of 10 mice each were selected based on the body weights at 7 days after acclimatization based on the body weights (Average:34.75±1.32 g, ranged in 31.6-37.4 g), as follows. Animals husbandries were conducted as same as antitussive assay. All laboratory animals were treated according to the national regulations of the usage and welfare of laboratory animals, and approved by the Institutional Animal Care and Use Committee in Daegu Haany University (Gyeongsan, Gyeongbuk, Korea) [DHU2016-035, Apr. 22, 2016; ANNEX IV].
AR, KOG and SKOG were orally administered as same as antitussive assay, once a day for 11 days before phenol red treatment. In addition, AM was also dissolved in distilled water as 25 mg/ml concentrations, and orally administered in a volume of 10 ml/kg (as equivalence to 250 mg/kg), once a day for 11 days before phenol red treatment. In intact vehicle control mice, distilled water 10 ml/kg was orally administered, instead of AR, KOG, SKOG or AM to provide same restrain stresses, in the present experiment.
Changes of body weights and gains were measured as same methods described in Example 3.

mice [2] = test: Expectorant assay: mucous secretions by phenol red (TLF OD, body surface redness); type: in vivo; conditions: 250 mg/kg orally, 11 days
Procedure: One-hundred twenty one 6-week male SPF/VAF CrljOri: […] Animals husbandries were conducted as same as antitussive assay. All laboratory animals were treated according to the national regulations of the usage and welfare of laboratory animals, and approved by the Institutional Animal Care and Use Committee in Daegu Haany University (Gyeongsan, Gyeongbuk, Korea) [[…] and SKOG were orally administered as same as antitussive assay, once a day for 11 days before phenol red treatment. In addition, AM was also dissolved in distilled water as 25 mg/ml concentrations, and orally administered in a volume of 10 ml/kg (as equivalence to 250 mg/kg), once a day for 11 days before phenol red treatment. In intact vehicle control mice, distilled water 10 ml/kg was orally administered, instead of AR, KOG, SKOG or AM to provide same restrain stresses, in the present experiment. Mucous secretions were measured by single intraperitoneal injection of 5% phenol red (Junsei Chemical Co. […] After ultrasonic for 15 min using ultrasonicator (Model 5210, Branson Ultrasonics, Danbury, Conn., USA), 1 ml NaHCO3 solution (5%, w/v) add to the normal saline, and optical density of these prepared trachea lavage fluid (TLF) were measured at 546 nm using a microplate reader (Model Sunrise, Tecan, Männedorf, Switzerland) as described previously with some modifications.

mice [3] = test: Expectorant assay: secondary bronchus histopathology; type: in vivo; conditions: 250 mg/kg orally, 11 days; compared with intact vehicle control
Procedure: AR, KOG and SKOG were orally administered as same as antitussive assay, once a day for 11 days before phenol red treatment. In addition, AM was also dissolved in distilled water as 25 mg/ml concentrations, and orally administered in a volume of 10 ml/kg (as equivalence to 250 mg/kg), once a day for 11 days before phenol red treatment. In intact vehicle control mice, distilled water 10 ml/kg was orally administered, instead of AR, KOG, SKOG or AM to provide same restrain stresses, in the present experiment. Simultaneously, some parts of individual lung (left lateral lobes) were sampled at trachea excisions, and fixed in 10% NBF, and crossly trimmed. Then embedded in paraffin, sectioned (3˜4 μm) and stained with H&E for general histopathology or PAS (periodic acid schiff) for mucous producing cells, and after that the histopathological profiles of each sample were observed under light microscope. […] The histopathologist was blinds to group distribution when this analysis was made, and at least five repeated measurements in same histological specimens prepared were considered to calculate each mean histomorphometrical value, whenever possible, in this histopathological evaluation.

[4] = Body weight measurements, anti-inflammatory assay; type: in vivo, mice; conditions: 1 mg/kg orally
Procedure: (§1) One-hundred thirty two 6-week male SPF/VAF CrljOri:CD1 [ICR] mice (OrientBio, Seungnam, Korea; body weight ranged in 29-32 g upon receipt) were prepared, and eight groups of 10 mice each were selected based on the body weights at 7 days after acclimatization based on the body weights (intact control: 33.88±1.11 g, ranged in 31.8˜35.4 g; Xylene treated mice: 33.85±1.32 g, ranged in 31.1-36.6 g), as follows. Animals husbandries were conducted as same as antitussive and expectorant assays. All laboratory animals were treated according to the national regulations of the usage and welfare of laboratory animals, and approved by the Institutional Animal Care and Use Committee in Daegu Haany University (Gyeongsan, Gyeongbuk, Korea) [DHU2016-036, Apr. 22, 2016; ANNEX V].
AR, KOG and SKOG were orally administered as same as antitussive and expectorant assays, once a day for 11 days before xylene topical applications. In addition, DEXA-water soluble granules were dissolved indistilled water as 1.5 mg/ml concentrations (0.1 mg/ml based on DEXA itself), and also orally administered in a volume of 10 ml/kg (as equivalence to 1 mg/kg based on DEXA itself), once a day for 11 days before xylene topical applications. In intact vehicle and xylene control mice, distilled water 10 ml/kg was orally administered, instead of AR, KOG, SKOG or DEXA to provide same restrain stresses, in the present experiment.
Changes of body weights and gains were measured as same methods described in Example 3 and 4.

[5] = test system: xylene topically applied mice; test: Anti-inflammatory assay: ear histopathology; type: in vivo; conditions: 1 mg/kg orally, 11 days; compared with xylene control mice
Procedure: Acute inflammations were induced by single topical application of 0.03 ml of xylene (Duksan Pure Chemical Co. Ltd., Ansan, Korea) to the anterior surface of the right ear at 1 hour after last 11th test substance administration, as described previously with some modifications. Equal volume of saline was topically applied in intact vehicle mouse ears, instead of xylene, in our experiment.
After ear weight measurement, individual ear samples were fixed in 10% NBF, and crossly trimmed. Then embedded in paraffin, sectioned (3˜4 μm) and stained with Hematoxylin and eosin (H&E) for general histopathology or toluidine blue for mast cells, and after that the histopathological profiles of each sample were observed under light microscope. To more detail changes, mean total, epidermis and dermis thicknesses of the ear anterior surface, numbers of infiltrated inflammatory cells and mast cells on the dermis of ear (cells/mm^2), collagen occupied region percentages on the dermis (%/mm2) were analyzed using a computer assisted image analysis program, according to previously established methods, respectively. The histopathologist was blinds to group distribution when this analysis was made, and at least five repeated measurements in same histological specimens prepared were considered to calculate each mean histomorphometrical value, whenever possible, in this histopathological evaluation.

[6] = test system: xylene topically applied mice; test: Anti-inflammatory assay: xylene-induced ear inflammation, ear weight and gross signs; type: in vivo; conditions: 1 mg/kg orally, 11 days; compared with xylene control mice
Procedure: as §1
AR, KOG and SKOG were orally administered as same as antitussive and expectorant assays, once a day for 11 days before xylene topical applications. […]
Two hours after topical application of xylene, circular sections of induced ear were taken using a cork borer with a 7-mm diameter and weighed as absolute wet-weights, and then the relative weights (% of bodyweights) of the ears were calculated to reduce the differences from individual body weights, as follow Equation [2], in the current experiment. […]

[7] = compared with intact vehicle control
[8] = 11 days, xylene topically applied mice

Nc1c(Br)cc(Br)cc1CN[C@H]1CC[C@H](O)CC1 [AM, ambroxol]
Body weight gains (g) [B − A] ([1]; 11 days, expectorant assay): 1.99 ± 0.73 g
Body weights (g) at test material administration First [A] ([1]; 11 days, expectorant assay): 29.23 ± 1.16 g
Body weights (g) at test material administration Last [B] ([1]; 11 days, expectorant assay): 31.22 ± 1.65 g
body weight gains during 11 days, change [1, 7]: 6.42%
body redness (body surface gross findings) (mice [2]; 30 min after intraperitoneal injection of phenol red, vs intact control): dramatic increases of body redness
TLF OD values, change (mice [2]; [7]): 33.95%
Mean numbers of secondary bronchus epithelial PAS positive mucous producing cells, change (mice [3]): 231.58%
Mean thicknesses of secondary bronchus mucosa, change (mice [3]): 41.69%

C[C@@H]1C[C@H]2[C@@H]3CCC4=CC(=O)C=C[C@]4(C)[C@@]3(F)[C@@H](O)C[C@]2(C)[C@@]1(O)C(=O)CO [DEXA, dexamethasone]
body weight gains during 11 days, change ([4]; 11 days, compared with xylene control mice): −145.10%
Body weight gains (g) [B − A] [4, 8]: −0.92 ± 0.76^ab g
Body weights (g) at test material administration First [A] [4, 8]: 28.72 ± 1.10 g
Body weights (g) at test material administration Last [B] [4, 8]: 27.80 ± 1.66^ab g
body weights during administration period ([4]; from 2 days after initial administration, compared with intact vehicle and xylene control mice): significant (p<0.01 or p<0.05) decreases of body weights
Mean ear dermis thicknesses, change [5]: −60.02%
Mean ear epidermis thicknesses, change [5]: −6.35%
Mean numbers of infiltrated inflammatory cells on the ear dermis, change [5]: −93.13%
Mean numbers of infiltrated mast cells on the ear dermis, change [5]: 647.56%
Mean percentages of collagen occupied regions on the ear dermis, change [5]: 189.63%
Mean total ear thicknesses, change [5]: −62.39%
absolute ear weights, change [6]: −48.52%
relative ear weights, change [6]: −42.61%
